# Assay results: patent publication US8329705B2, “Substituted triazolo-pyrazine compounds” (ArQule, Inc., priority 2009, dated 2012)
# Legend:
# MDA-MB-231 cancer cells = test: MTS assay, MDA-MB-231 cells; format: cell-based; set-up: concentration or dose not given beside the values
# Method: (§1) Cells were maintained at 37° C., 5% CO2 in DMEM media supplemented with 1% fetal bovine serum, penicillin/streptomycin and fungizone (Invitrogen). Cells were seeded into 96-well tissue culture plates at 3000 per well and cultured at 37° C. for 18 hours. Test compounds were dissolved and diluted to 300× in DMSO then diluted 1:40 in DMEM. Cells were incubated with test compounds for 72 hours followed by incubation with tetrazolium compound (3-(4,5-dimethylthiazol-2-yl)-5-(3-carboxymethoxyphenyl)-2-(4-sulfophenyl)-2H-tetrazolium, inner salt; MTS) and the electron coupling reagent, phenazine methosulfate (PMS) for 4 hours. […] The ability of compounds to inhibit cell growth in this assay is correlated with the reduction of dehydrogenase enzyme activity found in metabolically active cells. The measurement of the absorbance of the formazan was assessed using a Victor (Perkin Elmer) microplate reader at 492 nm. The calculated IC50 value is the concentration of the test compound that causes a 50% decrease in the absorbance. Percent inhibition by representative compounds of the present invention in MDA-MB231 and DLD-1 cancer cells is shown in Table 4.
# DLD-1 cancer cells = test: MTS assay, DLD-1 cells; format: cell-based; set-up: concentration or dose not given beside the values
# Method: as §1
# FGFR2 (N549H) = molecular target: T1, FGFR2 (N549H) (Homo sapiens, UniProt P21802, N549H); test: FGFR2 kinase activity assay (fluorescent ELISA); format: biochemical; conditions: 30 μM compound
# T1 construct: purchased Millipore 14-742
# T1 sequence (P21802 22-821 N549H): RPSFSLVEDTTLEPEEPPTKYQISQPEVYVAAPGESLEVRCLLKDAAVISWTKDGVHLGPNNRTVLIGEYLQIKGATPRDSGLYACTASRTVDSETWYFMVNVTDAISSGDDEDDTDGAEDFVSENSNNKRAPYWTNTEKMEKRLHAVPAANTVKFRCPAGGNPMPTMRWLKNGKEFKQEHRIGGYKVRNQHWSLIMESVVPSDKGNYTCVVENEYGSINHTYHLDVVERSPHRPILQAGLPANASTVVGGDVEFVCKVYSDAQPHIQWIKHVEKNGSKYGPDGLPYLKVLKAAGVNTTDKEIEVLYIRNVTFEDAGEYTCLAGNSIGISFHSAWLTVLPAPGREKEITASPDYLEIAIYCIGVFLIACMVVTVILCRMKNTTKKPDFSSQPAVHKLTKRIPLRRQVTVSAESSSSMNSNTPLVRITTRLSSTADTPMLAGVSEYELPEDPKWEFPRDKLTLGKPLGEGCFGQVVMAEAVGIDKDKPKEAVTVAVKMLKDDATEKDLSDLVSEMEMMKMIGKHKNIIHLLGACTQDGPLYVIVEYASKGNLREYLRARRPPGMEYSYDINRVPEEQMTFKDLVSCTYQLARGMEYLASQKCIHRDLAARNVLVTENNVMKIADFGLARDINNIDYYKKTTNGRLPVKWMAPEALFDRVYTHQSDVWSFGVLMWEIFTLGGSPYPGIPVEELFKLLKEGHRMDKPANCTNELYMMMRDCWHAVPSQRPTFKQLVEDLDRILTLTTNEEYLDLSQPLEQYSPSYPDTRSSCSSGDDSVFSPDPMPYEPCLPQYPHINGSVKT
# Method: A fluorescent ELISA assay was developed to identify and characterize inhibitors of FGFR2 kinase. This heterogeneous assay utilized a biotinylated peptide with a tyrosine motif as a substrate and an anti-phospho-tyrosine antibody to measure phosphorylation of the substrate. The reaction was initiated by adding a test compound, 37 uM Pyk2 substrate (Midwest Biotech, cat. #MBT2383), 12.5 uM ATP (Roche, cat. #11 140 965 001), and 0.5 uM FGFR2 enzyme (Millipore, cat. #14-742) sequentially to a non-binding polypropylene V-well plate. All reagents were in assay buffer consisting of: 50 mM Tris-HCL, 0.02 mg/mL BSA, 10 mM MgCl2, 0.1 mM Na3VO4, 1 mM EGTA, […], 0.01% NP-40, 2 mM DTT, 10% Glycerol. The reaction was incubated for 60 minutes. As the reaction proceeded, FGFR2 phosphorylated tyrosines in the peptide. The reaction mixture was then moved to a blocked streptavidin coated Nunc Maxisorb plate (coated with 100 ng streptavidin from Pierce (cat #15-124) per well) allowing for the capture of the biotinylated peptide. Peptide was captured for 30 minutes at room temperature, the phosphorylation of peptide continues during this phase. The reaction was stopped by washing the Streptavidin plate 6 times with TBST. Phosphorylated peptide was detected by adding anti-phospho tyrosine antibody (purchased from Cell Signaling, cat. #9411, diluted 1:3000), unbound antibody was removed by washing 6 times with TBST. Secondary detection was performed using Alkaline Phosphatase tagged goat anti-mouse antibody (purchased from Pierce, cat. #31320, diluted 1:4000) for one hour. Unbound secondary antibody was removed by washing 6 times with TBST.
# The fluorescent readout was initiated by the addition of Promega Attophos substrate (purchased from Promega; Kit catalog number: S1000, dilution=6 mg/10 mL), which when dephosphorylated by Alkaline phosphatase emitted a fluorescent signal of […] when excited by a signal […]. This reading was done on the Perkin Elmer Envision system. […] The signal was directly proportional to the activity of FGFR2 and compound inhibition of FGFR2 was monitored by a decrease in signal.
SMILES,"MDA-MB-231, MTS, 72 hours (% inhibition) (MDA-MB-231 cancer cells)","DLD-1, MTS, 72 hours (% Inhibition) (DLD-1 cancer cells)",inhibition at 30 µM (FGFR2 (N549H))
COc1cccc(Nc2nccn3c(NC(=O)OC(C)C)nnc23)c1 [Compound 5],98%,96%,
"Cc1ccnc(N(Cc2ccccc2)c2nccn3c(NC(=O)OC(C)C)nnc23)c1 [Compound 8, Isopropyl {8-[benzyl(4-methylpyridin-2-yl)amino][1,2,4]triazolo[4,3-a]pyrazin-3-yl}carbamate]",94%,99%,
"COc1ccccc1CNc1nccn2c(NC(=O)OC(C)C)nnc12 [Compound 15, isopropyl {8-[(2-methoxybenzyl)amino][1,2,4]triazolo[4,3-a]pyrazin-3-yl}carbamate]",83%,98%,51%
"CC(C)OC(=O)Nc1nnc2c(NCCC3CCCN3C)nccn12 (stereo not shown) [Compound 21, Isopropyl (8-{[2-(1-methylpyrrolidin-2-yl)ethyl]amino}[1,2,4]triazolo[4,3-a]pyrazin-3-yl)carbamate]",69%,58%,
"CC(C)OC(=O)Nc1nnc2c(NCc3ccc(C(C)(C)C)cc3)nccn12 [Compound 22, isopropyl {8-[(4-tert-butylbenzyl)amino][1,2,4]triazolo[4,3-a]pyrazin-3-yl}carbamate]",99%,98%,100%
"COc1ccccc1Nc1nccn2c(NC(=O)OC(C)C)nnc12 [Compound 39, isopropyl {8-[(2-methoxyphenyl)amino][1,2,4]triazolo[4,3-a]pyrazin-3-yl}carbamate]",97%,97%,78.3%
"CC(C)OC(=O)Nc1nnc2c(Nc3ccc(Br)cc3)nccn12 [Compound 52, isopropyl {8-[(4-bromophenyl)amino][1,2,4]triazolo[4,3-a]pyrazin-3-yl}carbamate]",98%,97%,95.1%
"CC(C)OC(=O)Nc1nnc2c(N(C)c3ccccn3)nccn12 [Compound 53, isopropyl {8-[methyl(pyridin-2-yl)amino][1,2,4]triazolo[4,3-a]pyrazin-3-yl}carbamate]",99%,96%,68.1%
"COc1ccccc1CCNc1nccn2c(NC(=O)OC(C)C)nnc12 [Compound 58, isopropyl (8-{[2-(2-methoxyphenyl)ethyl]amino}[1,2,4]triazolo[4,3-a]pyrazin-3-yl)carbamate]",59%,10%,80.6%
"CC(C)OC(=O)Nc1nnc2c(N3CCCCC3)nccn12 [Compound 59, isopropyl (8-piperidin-1-yl[1,2,4]triazolo[4,3-a]pyrazin-3-yl)carbamate]",53%,48%,82.5%
"CCc1ccc(CCNc2nccn3c(NC(=O)OC(C)C)nnc23)cc1 [Compound 62, isopropyl (8-{[2-(4-ethylphenyl)ethyl]amino}[1,2,4]triazolo[4,3-a]pyrazin-3-yl)carbamate]",78%,93%,74.2%
"CCN(c1ccccc1C)c1nccn2c(NC(=O)OC(C)C)nnc12 [Compound 63, isopropyl {8-[ethyl(2-methylphenyl)amino][1,2,4]triazolo[4,3-a]pyrazin-3-yl}carbamate]",76%,98%,75.7%
"CCN(c1cc(O)ccc1C)c1nccn2c(NC(=O)OC(C)C)nnc12 [Compound 64, isopropyl {8-[ethyl(5-hydroxy-2-methylphenyl)amino][1,2,4]triazolo[4,3-a]pyrazin-3-yl}carbamate]",51%,26%,57.2%
"CC(C)OC(=O)Nc1nnc2c(NCc3cccc(C(F)(F)F)c3)nccn12 [Compound 81, isopropyl (8-{[3-(trifluoromethyl)benzyl]amino}[1,2,4]triazolo[4,3-a]pyrazin-3-yl)carbamate]",99%,98%,96.9%
"COc1ccc(CCNc2nccn3c(N)nnc23)cc1 [Compound 117, N^8-[2-(4-methoxyphenyl)ethyl][1,2,4] triazolo[4,3-a]pyrazine-3,8-diamine]",99%,97%,
"Cc1cccc(CNc2nccn3c(N)nnc23)c1C [Compound 131, N^8-(2,3-dimethylbenzyl)[1,2,4]triazolo[4,3-a]pyrazine-3,8-diamine]",,,65.7%
"Nc1nnc2c(NCCc3ccccc3)nccn12 [Compound 136, N^8-(2-phenylethyl)[1,2,4]triazolo [4,3-a]pyrazine-3,8-diamine]",76%,97%,
"CCc1ccc(CNc2nccn3c(N)nnc23)cc1 [Compound 139, N^8-(4-ethylbenzyl)[1,2,4]triazolo[4,3-a]pyrazine-3,8-diamine]",,,96.3%
"Nc1nnc2c(NCc3ccc(Br)cc3)nccn12 [Compound 140, N^8-(4-bromobenzyl)[1,2,4]triazolo[4,3-a]pyrazine-3,8-diamine]",,,52.9%
"Nc1nnc2c(Nc3cccc(Br)c3)nccn12 [Compound 142, N^8-(3-bromophenyl)[1,2,4]triazolo[4,3-a]pyrazine-3,8-diamine]",,,59.9%
"Nc1nnc2c(NCc3ccccc3C(F)(F)F)nccn12 [Compound 143, N^8-[2-(trifluoromethyl)benzyl][1,2,4]triazolo[4,3-a]pyrazine-3,8-diamine]",,,73.2%
"COc1ccc(N(C)c2nccn3c(N)nnc23)cc1 [Compound 152, N^8-(4-methoxyphenyl)-N^8-methyl[1,2,4]triazolo[4,3-a]pyrazine-3,8-diamine]",,,109%
"Nc1nnc2c(NCc3ccccc3F)nccn12 [Compound 153, N^8-(2-fluorobenzyl)[1,2,4]triazolo[4,3-a]pyrazine-3,8-diamine]",,,72.9%
"COc1ccc(Cl)c(Nc2nccn3c(N)nnc23)c1 [Compound 154, N^8-(2-chloro-5-methoxyphenyl)[1,2,4]triazolo[4,3-a]pyrazine-3,8-diamine]",,,82.8%
"CN(c1cccc(Cl)c1)c1nccn2c(N)nnc12 [Compound 155, N^8-(3-chlorophenyl)-N^8-methyl[1,2,4]triazolo[4,3-a]pyrazine-3,8-diamine]",,,57.4%
